Values after ≈ are worked out from the molar mass of the structure shown. Positions of bridges follow the written chain, without caps; N, C: chain ends. Residues, ends and D or L forms follow the SMILES beside them.
Columns and labels:
human red blood cells = type: cell-based
Description: Figure 4 (A) Hemolytic effect on human red blood cells after 2 h incubation (hemoglobin release assay). (B) Cytotoxicity toward transformed human embryonic kidney cells after 20 h incubation (MTT-assay). The positive control used was 0.1% Triton X-100 and sterile PBS as a negative control. Melittin was used as an additional positive control. The data are presented as the mean ± SD of three independent experiments.
The hemolytic activity of compounds was performed using human red blood cells (hRBS) of healthy donor. Fresh blood was centrifuged to separate the erythrocyte fraction for 15 min at 500 g and washed three times with cold phosphate-buffered saline (PBS) (pH 7.4), after which an 8% (v/v) suspension of erythrocytes in PBS was prepared. Then, 50 µL of erythrocyte suspension was added to the test peptides, previously were dissolved in 50 µL of 0.1% BSA. The plate was incubated for 1.5 h at 37 °C and 950 rpm on the plate thermoshaker. After incubation, the plates were centrifuged for 15 min at 1000 g to settle intact erythrocytes. Next, aliquots of the supernatant were transferred to another plate to measure the amount of hemoglobin release by the absorbance of the solution at 405 nm. As “zero lysis” we used the supernatant obtained after centrifugation of erythrocytes incubated in a PBS solution without the addition of a peptide. As “100% lysis”, we used the supernatant obtained after centrifugation of erythrocytes incubated in a 0.1% Triton X-100, causing their complete lysis. The assays were conducted three times. The quantitative data were presented as an average means with standard deviations. Hemolysis(%)=OD405(compound)−OD405(zerolysis)/OD405(100%lysis)−OD405(zerolysis)×100%

[1] = RP-HPLC retention time as measure of hydrophobicity; type: physicochemical; details: chromatographic, semipreparative RP-HPLC, C18 column, linear gradient 5 to 80% (v/v) acetonitrile in water with 0.1% TFA within 50 minutes; used as measure of hydrophobicity
Description: Table S1. Characteristics of the recombinant AMPs.
1 Mean Kyte–Doolittle hydrophobicity index (GRAVY) was calculated using the Expasy ProtParam tool. The maximum and minimum values of this index are +4.5 and -4.5 for poly-Ile and poly-Arg sequences, respectively. 2 Retention times were measured using semipreparative reversed-phase high-performance liquid chromatography (RP - HPLC) on a C18 column with a linear gradient from 5 to 80% ( v/v) acetonitrile in water containing 0.1% trifluoroacetic […]
acid (TFA) within 50 minutes. […]

Gram-positive bacteria = type: cell-based; details: 24 h
Description: (§1) The antimicrobial activity of the peptides was determined via the method of two-fold serial dilutions in sterile 96-well flat-bottom polystyrene microplates (Eppendorf #0030730011) in Mueller–Hinton broth (MHB, Sigma, Kawasaki, Kanagawa, Japan) supplemented with 0.9% NaCl. Bacterial cultures were grown in MHB at 37 °C until the culture reached an optical density OD600 of 1.0 and diluted with the broth so that to reach a final cell concentration of 10^6 CFU/mL. Then 50 μL of the test culture were added to 50 μL of aqueous solutions of the peptides, previously diluted in 0.1% sterilized bovine serum albumin (BSA) to reduce non-specific binding of the peptides to the surface of the plates. Next, the plate was incubated for 24 h at 37 °C and 950 rpm on the plate thermoshaker (Biosan). The values of the minimum inhibitory concentrations (MIC) were determined as the minimum concentration of the peptide, at which there is no culture growth. The results were expressed as the median values of three independent experiments performed in triplicate.

Gram-negative bacteria = assay: Geometric mean of MICs, Gram-negative panel; type: cell-based; details: geometric mean (GM) of MICs against the 14 Gram-negative strains of Figure 2
Description: as §1

SMILES | Hemolytic activity (in words) (human red blood cells) | RP-HPLC Retention Time [1] [min] | Minimum inhibitory concentration (MIC): Gram-positive Geometric mean (Gram-positive bacteria) [µM] | Minimum inhibitory concentration (MIC): Gram-negative Geometric mean (Gram-negative bacteria) [µM]
CC[C@H](C)[C@@H]1NC(=O)[C@H](CCCNC(=N)N)NC(=O)[C@H](C(C)C)NC(=O)CNC(=O)[C@H](CC(N)=O)NC(=O)[C@H](CCCNC(=N)N)NC(=O)[C@H](C)NC(=O)[C@H](Cc2ccc(O)cc2)NC(=O)[C@@H]2CSSC[C@H](NC1=O)C(=O)N[C@@H](Cc1ccc(O)cc1)C(=O)N[C@@H](CCCNC(=N)N)C(=O)N[C@@H](CCCNC(=N)N)C(=O)N[C@H](C(=O)N[C@@H](CC(N)=O)C(=O)O)CSSC[C@H](NC(=O)[C@H](Cc1ccc(O)cc1)NC(=O)CN)C(=O)N[C@@H](Cc1ccccc1)C(=O)N[C@@H]([C@@H](C)O)C(=O)N[C@@H](C)C(=O)N2 [Ap3] (H-GYCFTACYARNGVRICYRRCN-OH; disulfide 3-20, 7-16) | ability to lyse hRBCs is stronger | 25.47 | 1 (≈ 2.49 µg/mL) | –
CC(C)C[C@@H]1NC(=O)[C@H](Cc2ccc(O)cc2)NC(=O)[C@@H]2CSSC[C@H](NC(=O)[C@H](CCCNC(=N)N)NC(=O)[C@H](CCCNC(=N)N)NC(=O)[C@H](C(C)C)NC(=O)CNC(=O)[C@H](CC(N)=O)NC(=O)[C@H](CCCNC(=N)N)NC1=O)C(=O)N[C@@H](Cc1ccc(O)cc1)C(=O)N[C@@H](CCCNC(=N)N)C(=O)N[C@@H](CCCNC(=N)N)C(=O)N[C@H](C(=O)N[C@@H](CC(N)=O)C(=O)O)CSSC[C@H](NC(=O)[C@H](Cc1ccc(O)cc1)NC(=O)CN)C(=O)N[C@@H](Cc1ccccc1)C(=O)N[C@@H]([C@@H](C)O)C(=O)N[C@@H](C)C(=O)N2 [Ap8] (H-GYCFTACYLRNGVRRCYRRCN-OH; disulfide 3-20, 7-16) | – | 24.34 | 16 (≈ 41.1 µg/mL) | –
CC[C@H](C)[C@@H]1NC(=O)[C@H](CCCNC(=N)N)NC(=O)[C@H](C)NC(=O)CNC(=O)[C@H](CC(N)=O)NC(=O)[C@H](CCCNC(=N)N)NC(=O)[C@H](CCCNC(=N)N)NC(=O)[C@H](Cc2ccc(O)cc2)NC(=O)[C@@H]2CSSC[C@H](NC1=O)C(=O)N[C@@H](Cc1ccc(O)cc1)C(=O)N[C@@H](CCCNC(=N)N)C(=O)N[C@@H](CCCNC(=N)N)C(=O)N[C@H](C(=O)N[C@@H](CC(N)=O)C(=O)O)CSSC[C@H](NC(=O)[C@H](Cc1ccc(O)cc1)NC(=O)CN)C(=O)N[C@@H](Cc1ccccc1)C(=O)N[C@@H]([C@@H](C)O)C(=O)N[C@@H](C)C(=O)N2 [Ap10] (H-GYCFTACYRRNGARICYRRCN-OH; disulfide 3-20, 7-16) | – | 24.41 | 2.52 (≈ 6.41 µg/mL) | 0.31 (≈ 0.788 µg/mL)
CC[C@H](C)[C@@H]1NC(=O)[C@H](CCCNC(=N)N)NC(=O)[C@H](CCCNC(=N)N)NC(=O)CNC(=O)[C@H](CC(N)=O)NC(=O)[C@H](CCCNC(=N)N)NC(=O)[C@H](CC(C)C)NC(=O)[C@H](Cc2ccc(O)cc2)NC(=O)[C@@H]2CSSC[C@H](NC1=O)C(=O)N[C@@H](Cc1ccc(O)cc1)C(=O)N[C@@H](CCCNC(=N)N)C(=O)N[C@@H](CCCNC(=N)N)C(=O)N[C@H](C(=O)N[C@@H](CC(N)=O)C(=O)O)CSSC[C@H](NC(=O)[C@H](Cc1ccc(O)cc1)NC(=O)CN)C(=O)N[C@@H](Cc1ccccc1)C(=O)N[C@@H]([C@@H](C)O)C(=O)N[C@@H](C)C(=O)N2 [Ap6] (H-GYCFTACYLRNGRRICYRRCN-OH; disulfide 3-20, 7-16) | – | 24.69 | 6.35 (≈ 16.4 µg/mL) | –
CC[C@H](C)[C@@H]1NC(=O)[C@H](CCCNC(=N)N)NC(=O)[C@H](C)NC(=O)CNC(=O)[C@H](CC(N)=O)NC(=O)[C@H](CCCNC(=N)N)NC(=O)[C@H](CC(C)C)NC(=O)[C@H](Cc2ccc(O)cc2)NC(=O)[C@@H]2CSSC[C@H](NC1=O)C(=O)N[C@@H](Cc1ccc(O)cc1)C(=O)N[C@@H](CCCNC(=N)N)C(=O)N[C@@H](CCCNC(=N)N)C(=O)N[C@H](C(=O)N[C@@H](CC(N)=O)C(=O)O)CSSC[C@H](NC(=O)[C@H](Cc1ccc(O)cc1)NC(=O)CN)C(=O)N[C@@H](Cc1ccccc1)C(=O)N[C@@H]([C@@H](C)O)C(=O)N[C@@H](C)C(=O)N2 [Ap5] (H-GYCFTACYLRNGARICYRRCN-OH; disulfide 3-20, 7-16) | – | 25.53 | 5.04 (≈ 12.6 µg/mL) | –
CC[C@H](C)[C@@H]1NC(=O)[C@H](CCCNC(=N)N)NC(=O)[C@H](C(C)C)NC(=O)CNC(=O)[C@H](CC(N)=O)NC(=O)[C@H](CCCNC(=N)N)NC(=O)[C@H](CC(C)C)NC(=O)[C@H](C)NC(=O)[C@@H]2CSSC[C@H](NC1=O)C(=O)N[C@@H](Cc1ccc(O)cc1)C(=O)N[C@@H](CCCNC(=N)N)C(=O)N[C@@H](CCCNC(=N)N)C(=O)N[C@H](C(=O)N[C@@H](CC(N)=O)C(=O)O)CSSC[C@H](NC(=O)[C@H](Cc1ccc(O)cc1)NC(=O)CN)C(=O)N[C@@H](Cc1ccccc1)C(=O)N[C@@H]([C@@H](C)O)C(=O)N[C@@H](C)C(=O)N2 [Ap1] (H-GYCFTACALRNGVRICYRRCN-OH; disulfide 3-20, 7-16) | – | 26.05 | 10.08 (≈ 24.6 µg/mL) | –
CC(C)C[C@@H]1NC(=O)[C@H](Cc2ccc(O)cc2)NC(=O)[C@@H]2CSSC[C@H](NC(=O)[C@H](C)NC(=O)[C@H](CCCNC(=N)N)NC(=O)[C@H](C(C)C)NC(=O)CNC(=O)[C@H](CC(N)=O)NC(=O)[C@H](CCCNC(=N)N)NC1=O)C(=O)N[C@@H](Cc1ccc(O)cc1)C(=O)N[C@@H](CCCNC(=N)N)C(=O)N[C@@H](CCCNC(=N)N)C(=O)N[C@H](C(=O)N[C@@H](CC(N)=O)C(=O)O)CSSC[C@H](NC(=O)[C@H](Cc1ccc(O)cc1)NC(=O)CN)C(=O)N[C@@H](Cc1ccccc1)C(=O)N[C@@H]([C@@H](C)O)C(=O)N[C@@H](C)C(=O)N2 [Ap7] (H-GYCFTACYLRNGVRACYRRCN-OH; disulfide 3-20, 7-16) | – | 25.61 | 8 (≈ 19.9 µg/mL) | –
CC[C@H](C)[C@@H]1NC(=O)[C@H](CCCNC(=N)N)NC(=O)[C@H](C(C)C)NC(=O)CNC(=O)[C@H](CC(N)=O)NC(=O)[C@H](CCCNC(=N)N)NC(=O)[C@H](CC(C)C)NC(=O)[C@H](CCCNC(=N)N)NC(=O)[C@@H]2CSSC[C@H](NC1=O)C(=O)N[C@@H](Cc1ccc(O)cc1)C(=O)N[C@@H](CCCNC(=N)N)C(=O)N[C@@H](CCCNC(=N)N)C(=O)N[C@H](C(=O)N[C@@H](CC(N)=O)C(=O)O)CSSC[C@H](NC(=O)[C@H](Cc1ccc(O)cc1)NC(=O)CN)C(=O)N[C@@H](Cc1ccccc1)C(=O)N[C@@H]([C@@H](C)O)C(=O)N[C@@H](C)C(=O)N2 [Ap2] (H-GYCFTACRLRNGVRICYRRCN-OH; disulfide 3-20, 7-16) | – | 24.29 | 12.7 (≈ 32 µg/mL) | –

Source: article PMC9410094 (Marine Drugs, 2022)
